# According to patent US20170296550A1, “ARYL SULTAM DERIVATIVES AS RORc MODULATORS” (Genentech, Inc., priority 2013, published 2017):
# Target: T1, RORc (Homo sapiens, UniProt P51449)
# T1 construct: host or cells: E. coli
# T1 sequence (P51449 269-508 limits assumed): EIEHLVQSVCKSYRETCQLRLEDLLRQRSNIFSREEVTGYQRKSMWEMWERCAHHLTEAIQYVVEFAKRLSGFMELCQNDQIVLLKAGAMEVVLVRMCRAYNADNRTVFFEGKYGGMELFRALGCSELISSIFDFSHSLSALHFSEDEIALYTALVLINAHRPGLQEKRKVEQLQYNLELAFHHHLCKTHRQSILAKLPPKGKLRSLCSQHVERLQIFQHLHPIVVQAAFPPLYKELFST
# Assay: In Vitro RORc Ligand Binding Assay (25-[3H]hydroxycholesterol radioligand, filter plate)
# Conditions: RORc ligand binding domain 0.6 ug/mL; 6 nM 25-[3H]hydroxycholesterol; 3 h at 25° C.
# Protocol: Example 68 In Vitro RORc Ligand Binding Assay
# This assay was used to determine a compound's potency in inhibiting activity of RORc by determining, Kiapp, IC50, or percent inhibition values.
# On day of the assay, 100 uL of 0.05% CHAPS (in deionized H2O) was added to all wells of the GFB Unifilter plate and allowed soak for 1 h. A wash buffer of 50 mM HEPES (pH 7.4), 150 mM NaCl, and 5 mM MgCl2 was prepared to wash the filter plate. To prepare an assay buffer, BSA was added to the wash buffer to reach 0.01% and DTT was added to reach 1 mM.
# For IC50 mode, 10 mM compound stocks were serially diluted in DMSO with DMSO to give 20× required final concentration in DMSO (15 uL compound+30 uL DMSO). The 20× compound stocks were diluted in DMSO with Assay Buffer 4-fold to reach 5× the final test concentration in 25% DMSO (10 uL compound+30 uL Assay Buffer). Solutions were mixed by aspiration several times with a pipette set on 50 uL volume. For the assay, 10 uL of 5× compound stock solutions in 25% DMSO were added to the assay plate in duplicate.
# For two point screening, 10 mM stock compound solutions were diluted in DMSO to obtain 200 uM (20× the high test concentration) and then diluted 10-fold further to reach 20 uM (20× the low test concentration). The 20× stocks were diluted 4-fold with Assay Buffer (10 uL compound+30 uL Assay Buffer) to reach 5× the test concentrations (50 uM and 5 uM) and 10 uL were added to two assay plates for the duplicate wells. With each concentration tested on 2 plates, each set of 80 compounds used 4 assay plates (1 uM and 10 uM, with n=2).
# 25-hydroxycholesterol (1 uM) was used to determine the level of NSB signal is prepared in DMSO as for compounds above, then diluted in Assay Buffer to give a final concentration of 5 uM. For 25-hydroxycholesterol in 25% DMSO/75% Assay Buffer; 10 uL per well was used for NSB samples. Wells for Total Binding and No Receptor sample determination contained 10 uL of 25% DMSO/75% Assay Buffer per well.
# Radioligand (25-[^3H]hydroxycholesterol) Preparation
# 25-[^3H]hydroxycholesterol was dilute in Assay Buffer to obtain 15 nM and vortex to mix. Add 20 uL to all wells to reach 6 nM final in the assay.
# Stock receptor solution was diluted in assay buffer to obtain 1.5 ug/mL in Assay Buffer. 20 uL was added to all wells. For No R samples, 20 uL Assay Buffer was substituted for receptor solution.
# Assay plates were 96-well polypropylene V-bottom plates. 10 uL of 5× compound in 25% DMSO/75% Assay Buffer was added to Test wells. 10 uL of 25% DMSO/75% Assay Buffer was added to Total Binding or No Receptor wells. 10 uL of 5 uM 25-hydroxycholesterol in 25% DMSO/75% Assay Buffer was added to NSB wells. 20 uL of 15 nM 25-[^3H]hydroxycholesterol prepared in Assay Buffer was added to all wells. 20 uL of 1.5 ug/mL RORc receptor was added to wells (or […] Assay Buffer to No R wells). Following addition to the wells, the plates were incubated 3 h at 25° C.
# Using a Packard Filtermate Harvester, the filter plate were washed 4 times following transfer of the incubated samples. Plates were dry-filtered completely (2 h at 50° C. or overnight at room temperature). 50 uL Microscint 0 was added to all wells and read on Topcount protocol Inverted.
# Final concentrations were as follows: 50 mM HEPES buffer (pH 7.4); 150 mM NaCl; 1 mM DTT; 5 mM MgCl2; 0.01% BSA; 5% DMSO; 0.6 ug/mL RORc receptor; 6 nM 25-[^3H]hydroxycholesterol. For NSB wells, 1 uM 25-hydroxycholesterol was also present.
row,IC50 [nM],Compound
1,502,"C[C@H]1CCC(c2ccccc2)S(=O)(=O)N1Cc1ccc(C(=O)NCc2cn[nH]c2)cc1 (single isomer, unassigned) [Example 7]"
2,969,"Cc1cc(NC(=O)c2ccc(CN3[C@@H](C)CCC(c4ccccc4)S3(=O)=O)cc2)n(C)n1 (single isomer, unassigned) [Example 9]"
3,2900,"C[C@H]1CCC(c2ccccc2)S(=O)(=O)N1Cc1ccc(C(=O)Nc2nc[nH]c2C#N)cc1 (single isomer, unassigned) [Example 10]"
4,3280,"C[C@H]1CCC(c2ccccc2)S(=O)(=O)N1Cc1ccc(C(=O)Nc2ncnn2C)cc1 (single isomer, unassigned) [Example 21]"
5,3920,"C[C@H]1CCC(c2ccccc2)S(=O)(=O)N1Cc1ccc(C(=O)NCCn2ccnc2)cc1 (stereo partly drawn) [Example 6, N-(2-Imidazol-1-yl-ethyl)-4-((3S)-3-methyl-1,1-dioxo-6-phenyl-[1,2]thiazinan-2-ylmethyl)-benzamide]"
6,4980,"C[C@H]1CC[C@H](c2ccccc2)S(=O)(=O)N1Cc1ccc(C(=O)NCCCn2ccnc2)cc1 [Example 8, N-(3-Imidazol-1-yl-propyl)-4-((3S)-3-methyl-1,1-dioxo-6-phenyl-[1,2]thiazinan-2-ylmethyl)-benzamide]"
7,1220,"Cc1cc(NC(=O)c2ccc(CN3[C@@H](C)CCC(c4ccccc4)S3(=O)=O)cc2)n[nH]1 (stereo partly drawn) [Example 11, 4-((3S)-3-Methyl-1,1-dioxo-6-phenyl-[1,2]thiazinan-2-ylmethyl)-N-(5-methyl-1H-pyrazol-3-yl)-benzamidc]"
8,404,"Cc1cc(NC(=O)c2ccc(CN3[C@@H](C)CCC(c4ccccc4)S3(=O)=O)cc2)no1 (stereo partly drawn) [Example 12, 4-((3S)-3-Methyl-1,1-dioxo-6-phenyl-[1,2]thiazinan-2-ylmethyl)-N-(5-methyl-isoxazol-3-yl)-benzamide]"
9,166,"C[C@H]1CCC(c2ccccc2)S(=O)(=O)N1Cc1ccc(C(=O)Nc2ccon2)cc1 (stereo partly drawn) [Example 13, N-Isoxazol-3-yl-4-((3S)-3-methyl-1,1-dioxo-6-phenyl-[1,2]thiazinan-2-ylmethyl)-benzamide]"
10,1980,"C[C@H]1CCC(c2ccccc2)S(=O)(=O)N1Cc1ccc(C(=O)NCc2ccnn2C)cc1 (stereo partly drawn) [Example 17, 4-((3S)-3-Methyl-1,1-dioxo-6-phenyl-[1,2]thiazinan-2-ylmethyl)-N-(2-methyl-2H-pyrazol-3-ylmethyl)-benzamide]"
11,1920,"CC(NC(=O)c1ccc(CN2[C@@H](C)CCC(c3ccccc3)S2(=O)=O)cc1)c1ncc[nH]1 (stereo partly drawn) [Example 18, N-[1-(1H-Imidazol-2-yl)-ethyl]-4-((3S)-3-methyl-1,1-dioxo-6-phenyl-[1,2]thiazinan-2-ylmethyl)-benzamide]"
12,985,"C[C@H]1CCC(c2ccccc2)S(=O)(=O)N1Cc1ccc(C(=O)NCc2ccno2)cc1 (stereo partly drawn) [Example 19, N-Isoxazol-5-ylmethyl-4-((3S)-3-methyl-1,1-dioxo-6-phenyl-[1,2]thiazinan-2-ylmethyl)-benzamide]"
13,2110,"Cc1nn(C)cc1NC(=O)c1ccc(CN2[C@@H](C)CCC(c3ccccc3)S2(=O)=O)cc1 (stereo partly drawn) [Example 20, N-(1,3-Dimethyl-1H-pyrazol-4-yl)-4-((3S)-3-methyl-1,1-dioxo-6-phenyl-[1,2]thiazinan-2-ylmethyl)-benzamide]"

# Continued, compound first:
row,Compound,IC50 [nM]
1,"Cc1n[nH]c(C)c1-c1ccc(CN2[C@@H](C)CCC(c3ccccc3)S2(=O)=O)c(F)c1 (single isomer, unassigned) [Example 1]",527
2,"Cc1noc(C)c1C(=O)Nc1ccc(CN2[C@@H](C)CCC(c3ccccc3)S2(=O)=O)c(F)c1 (single isomer, unassigned) [Example 4]",27
3,"C[C@H]1CCC(c2ccccc2)S(=O)(=O)N1Cc1ccc(-c2ccc(S(N)(=O)=O)cc2)cc1F (single isomer, unassigned) [Example 22]",87
4,"C[C@H]1CCC(c2ccccc2)S(=O)(=O)N1Cc1ccc(-c2cccc(CC(N)=O)c2)cc1F (single isomer, unassigned) [Example 25]",208
5,"C[C@H]1CCC(c2ccccc2)S(=O)(=O)N1Cc1ccc(-c2ccc(C(=O)N(C)C)cc2)cc1F (single isomer, unassigned) [Example 30]",160
6,"C[C@H]1CCC(c2ccccc2)S(=O)(=O)N1Cc1ccc(-c2csc(S(C)(=O)=O)n2)cc1F (single isomer, unassigned) [Example 37]",273
7,"C[C@H]1CCC(c2ccccc2)S(=O)(=O)N1Cc1ccc(-c2ccc(S(C)(=O)=O)nn2)cc1F (single isomer, unassigned) [Example 41]",289
8,"C[C@H]1CCC(c2ccccc2)S(=O)(=O)N1Cc1ccc(-c2n[nH]c(S(C)(=O)=O)n2)cc1F (single isomer, unassigned) [Example 42]",2170
9,"C[C@H]1CCC(c2ccccc2)S(=O)(=O)N1Cc1ccc(-c2cnc(NS(C)(=O)=O)nc2)cc1F (single isomer, unassigned) [Example 43]",275
10,"Cc1ccnc(COc2ccc(CN3[C@@H](C)CCC(c4ccccc4)S3(=O)=O)cc2)n1 (single isomer, unassigned) [Example 44]",963
11,"CC(Oc1ccc(CN2[C@@H](C)CCC(c3ccccc3)S2(=O)=O)cc1)c1cnn(C)c1 (single isomer, unassigned) [Example 45]",693
12,"CC(Oc1ccc(CN2[C@@H](C)CCC(c3ccccc3)S2(=O)=O)cc1)c1ncccn1 (single isomer, unassigned) [Example 50]",1350
13,"C[C@H]1CCC(c2ccccc2)S(=O)(=O)N1Cc1ccc(OCc2ccncc2)cc1 (single isomer, unassigned) [Example 57]",114
14,"C[C@H]1CCC(c2ccccc2)S(=O)(=O)N1Cc1ccc(OCc2cccnc2)cc1 (single isomer, unassigned) [Example 58]",106
15,"Cc1ncsc1CCOc1ccc(CN2[C@@H](C)CCC(c3ccccc3)S2(=O)=O)cc1 (single isomer, unassigned) [Example 61]",151
16,"C[C@H]1CCC(c2ccccc2)S(=O)(=O)N1Cc1ccc(-c2ccc3nncn3c2)cc1F (stereo partly drawn) [Example 5, 6-[3-Fluoro-4-((3S)-3-methyl-1,1-dioxo-6-phenyl-[1,2]thiazinan-2-ylmethyl)-phenyl]-[1,2,4]triazolo[4,3-a]pyridine]",454
17,"C[C@H]1CCC(c2ccccc2)S(=O)(=O)N1Cc1ccc(C(=O)NCc2noc(C(N)=O)n2)cc1 (stereo partly drawn) [Example 14, 3-{[4-((3S)-3-Methyl-1,1-dioxo-6-phenyl-[1,2]thiazinan-2-ylmethyl)-benzoylamino]-methyl}-[1,2,4]oxadiazole-5-carboxylic acid amide]",1390
18,"C[C@H]1CCC(c2ccccc2)S(=O)(=O)N1Cc1ccc(C(=O)NCc2noc(C(=O)N(C)C)n2)cc1 (stereo partly drawn) [Example 15, 3-{[4-((3S)-3-Methyl-1,1-dioxo-6-phenyl-[1,2]thiazinan-2-ylmethyl)-benzoylamino]-methyl}-[1,2,4]oxadiazole-5-carboxylic acid dimethylamide]",5190
19,"C[C@H]1CCC(c2ccccc2)S(=O)(=O)N1Cc1ccc(C(=O)N(C)c2ncco2)cc1 (stereo partly drawn) [Example 16, N-Methyl-4-((3S)-3-methyl-1,1-dioxo-6-phenyl-[1,2]thiazinan-2-ylmethyl)-N-oxazol-2-yl-benzamide]",4840
